Test results published in patent US7083941B2, “Compositions and methods for gender sorting” (priority 2001, dated 2006).

The compounds below were run against T1, human estrogen receptor (Homo sapiens, UniProt P03372, G400V). Details: not given.
T1 sequence (P03372 1-595 G400V): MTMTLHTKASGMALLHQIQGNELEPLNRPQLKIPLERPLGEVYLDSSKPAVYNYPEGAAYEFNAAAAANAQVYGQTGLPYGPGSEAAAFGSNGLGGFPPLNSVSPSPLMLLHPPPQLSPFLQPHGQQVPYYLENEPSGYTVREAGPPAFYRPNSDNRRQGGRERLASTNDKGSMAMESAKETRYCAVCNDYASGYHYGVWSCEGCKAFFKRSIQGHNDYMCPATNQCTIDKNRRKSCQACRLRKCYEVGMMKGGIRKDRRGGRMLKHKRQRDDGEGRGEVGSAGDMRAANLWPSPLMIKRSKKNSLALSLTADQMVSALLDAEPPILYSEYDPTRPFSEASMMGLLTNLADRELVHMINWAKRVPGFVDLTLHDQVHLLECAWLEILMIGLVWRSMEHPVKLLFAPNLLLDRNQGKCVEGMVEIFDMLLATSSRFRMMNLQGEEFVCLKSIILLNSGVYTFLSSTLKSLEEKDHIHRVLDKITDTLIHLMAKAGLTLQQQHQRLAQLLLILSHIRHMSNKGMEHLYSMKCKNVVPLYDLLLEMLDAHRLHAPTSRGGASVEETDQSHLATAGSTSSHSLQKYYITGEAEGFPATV

| Compound | Percent Cross Reactivity |
| --- | --- |
| 4-Hydroxytamoxifen | <0.25% |

Same assay, conditions: cross-activity determined at concentration of 50% maximum potency; 17-β Estradiol = 100

| Compound | Percent Cross Reactivity |
| --- | --- |
| C[C@]12CC[C@H](O)CC1=CC[C@@H]1[C@@H]2CC[C@]2(C)C(=O)CC[C@@H]12 [Dehydroepiandrosterone] | <0.05% |
| C[C@]12CCC(=O)C=C1CC[C@@H]1[C@@H]2CC[C@]2(C)C(=O)CC[C@@H]12 [Androstenedione] | <0.05% |
| C#C[C@]1(O)CC[C@H]2[C@@H]3CCC4=Cc5oncc5C[C@]4(C)[C@H]3CC[C@@]21C [Danasol] | <0.025% |
| CC(=O)[C@H]1CC[C@H]2[C@@H]3CCC4=CC(=O)CC[C@]4(C)[C@H]3CC[C@]12C [Progesterone] | <0.025% |
| C[C@]12CC[C@H]3[C@@H](CCC4=CC(=O)CC[C@@]43C)[C@@H]1CC[C@@H]2O [Testosterone] | <0.05% |
| C[C@]12C[C@H](O)[C@H]3[C@@H](CCC4=CC(=O)CC[C@@]43C)[C@@H]1CC[C@@H]2C(=O)CO [Corticosterone] | <0.025% |
| C[C@]12CC[C@@H]3c4ccc(O)cc4CC[C@H]3[C@@H]1C[C@@H](O)C2=O [16-Hydroxyestrone] | 4.0% |
| COc1cc2c(cc1O)CC[C@@H]1[C@@H]2CC[C@]2(C)C(=O)CC[C@@H]12 [2-Methoxyestrone] | <0.25% |
| C[C@H]1CC(=O)C[C@@H]2CC[C@H]3[C@@H]4CC[C@H](O)[C@@]4(C)CC[C@@H]3[C@]21C [Mesterolone] | <0.05% |
